Laboratory results reported in PubChem BioAssay AID858 (Vanderbilt High Throughput Screening Facility, 2007).
pEC50: −log10 of the molar value. Active and inactive are the calls of the source.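 How the source made its calls: active means at least two of three replicate dose series yielding a converging curve fit, whether well or thinly supported; inactive means the rest.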

target: D(1A) dopamine receptor (Homo sapiens) (UniProt P21728); assay: D1 receptor modulation with EC30 dopamine, dose response, D1 allosteric modulator project, cell-based, CRE-luciferase, HEK293 (AID 858);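 further: HEK 293 cells bearing human D1 receptor stimulated by dopamine at its EC30; luciferase light from a cAMP response element reporter gene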
Sequence (P21728 whole entry, looked up): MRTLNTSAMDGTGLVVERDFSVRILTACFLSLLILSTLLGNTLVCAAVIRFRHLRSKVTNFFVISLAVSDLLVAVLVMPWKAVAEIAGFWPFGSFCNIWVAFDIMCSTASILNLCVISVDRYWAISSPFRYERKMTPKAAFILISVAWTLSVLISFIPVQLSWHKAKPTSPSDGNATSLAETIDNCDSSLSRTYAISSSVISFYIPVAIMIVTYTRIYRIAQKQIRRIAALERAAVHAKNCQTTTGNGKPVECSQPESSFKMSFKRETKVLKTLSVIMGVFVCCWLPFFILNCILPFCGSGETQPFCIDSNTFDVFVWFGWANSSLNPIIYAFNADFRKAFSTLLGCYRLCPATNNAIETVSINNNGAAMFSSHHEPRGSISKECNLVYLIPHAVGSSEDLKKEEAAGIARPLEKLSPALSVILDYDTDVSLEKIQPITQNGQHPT

Row | SMILES | outcome | pEC50
1 | CCOC(=O)N1CCN(C(=O)C(C)(C)Oc2ccc(Cl)cc2)CC1 | inactive | 
2 | COc1ccc(OC)c(C(=O)COC(=O)C2CC3CCCC(C2)C3=O)c1 (stereo not drawn) | inactive | 
3 | Cc1cc(-n2nc(C)cc2C)nc(NS(=O)(=O)c2ccccc2)n1 | inactive | 
4 | Nc1nc(SCc2ccc3c(c2)OCCO3)n[nH]1 | inactive | 
5 | Brc1ccc(-c2nn3c(Cc4ccccc4)nnc3s2)o1 | inactive | 
6 | Clc1cccc(Nc2c3c(nc4ncnn24)CCC3)c1 | inactive | 
7 | COc1ccc(-c2cc(=O)oc3c(C)c(O)c(CN(C)C)cc23)cc1 | inactive | 
8 | CCOC(=O)N1CCN(C(=O)CCCn2c(=S)[nH]c3ccccc3c2=O)CC1 | inactive | 
9 | CC(C)Sc1nc2c(c(=O)n1C)SC(C)C2 (stereo not drawn) | inactive | 
10 | COc1ccc(-c2coc3cc(O)cc(O)c3c2=O)cc1 | inactive | 
11 | Cc1sc2nc(C3CC3)nc(NCCNS(C)(=O)=O)c2c1C | inactive | 
12 | COc1ncnc2c1N=C1CC(C)(C)CC(N)=C1S2 | inactive | 
13 | Cn1nnnc1SCC(=O)Nc1nc(-c2ccccc2)c(-c2ccccc2)o1 | inactive | 
14 | COc1ccc2[nH]c(=O)c(CN(Cc3cccs3)Cc3nnnn3C(C)(C)C)cc2c1 | inactive | 
15 | CCOC(=O)c1nn(-c2ccccc2C)c(=O)c(C#N)c1C | inactive | 
16 | c1ccc2c(c1)nc(NCC1CCCO1)c1nnnn12 (stereo not drawn) | inactive | 
17 | CCOC(=O)c1nc(-c2ccccc2)oc1N(C)C | inactive | 
18 | O=C1CC(c2ccsc2)c2cc3c(cc2N1)OCCO3 (stereo not drawn) | inactive | 
19 | CCC(C)Nc1nc(OC)nc(N(C)C#N)n1 (stereo not drawn) | inactive | 

Row | SMILES | outcome | pEC50
20 | C=CCNC(=O)C1CC(c2cccc(OC)c2)=NO1 (stereo not drawn) | inactive | 
21 | CCOC(=O)c1c(C)oc2c1c(C=NCc1ccccn1)c(O)c1ccccc12 | inactive | 
22 | CC(C)OC(=O)CSc1nnc(-c2cnccn2)n1-c1ccccc1 | inactive | 
23 | CCCc1nc(N2CCOCC2)c(C#N)c2c1CCCC2 | inactive | 
24 | COc1c(S(=O)(=O)n2nc(C)cc2C)ccc(Cl)c1Cl | inactive | 
25 | NC(=O)CSc1nc2scc(-c3ccco3)c2c(=O)n1-c1ccccc1 |  | 5.79
26 | CCn1c2ccccc2c2nnc(SCCCn3c(=O)[nH]c4ccccc43)nc21 | inactive | 
27 | COc1ccc(CCNS(=O)(=O)c2ccc3c(c2)OCCO3)cc1OC | inactive | 
28 | CC1(C)CN=C(Nc2nc3ccccc3s2)S1 | inactive | 
29 | Cc1cc(C)n2c3c(c(C#N)c2n1)CCCC3 | inactive | 
30 | CN1CCN(CC(O)COCc2ccc3c(c2)OCO3)CC1 (stereo not drawn) | inactive | 
31 | Cc1cc(=O)c2n(Cc3ccc(Cl)cc3)nc[n+]2[nH]1 | inactive | 
32 | O=C(c1ccco1)N1CCN(c2nc(C3CC3)nc3sc4c(c23)CCCC4)CC1 | inactive | 
33 | CS(=O)(=O)c1sc2nc(-c3cccs3)cc(-c3ccccc3)c2c1N | inactive | 
34 | CCCC(=O)Nc1ccc(NC(=O)C2CC2)cn1 |  | 7.65
35 | O=C(CSc1nc2ccccc2s1)NC(=O)NCc1ccco1 | inactive | 
36 | COCCNC(=O)c1c(NC(=O)c2ccco2)n(Cc2ccccc2)c2nc3ccccc3nc12 | inactive | 
37 | CCOC(=O)c1c(-c2ccsc2)csc1N | inactive | 
38 | NC(=O)c1c(NC(=O)CSc2nnc(-c3ccco3)n2-c2ccccc2)sc2c1CCC2 | inactive | 
